In patent EP0248999A2, “Uses of enprostil-type prostaglandins in regulating fat and carbohydrate metabolism” (SYNTEX (U.S.A.) INC., priority 1986, dated 1987):
Where two headings read alike, the source gives them in different places.

What was measured:
serum glucose = test: Example 7: 25 g intravenous glucose tolerance test; assay type: in vivo, human; settings: 25 g intravenous glucose 30 minutes after enprostil, day 2 and day 10
Protocol: (§1) 10 normal subjects participated in a 10-day placebo-controlled cross-over study, receiving either placebo or 70 µg enprostil per day. On day 1 and day 9 of each study phase they orally received 5 g of d-xylose, a sugar not normally metabolized in man. Blood measurements for serum xylose were made at -30, 0, +30, 60, 120, 180, 240, and 300 minutes following ingestion.of xylose. On day 2 and day 10 of each study phase, the subjects received a 25 g intravenous glucose tolerance test, 30 minutes following enprostil administration.

serum cholesterol = test: Example 1: oral enprostil, serum cholesterol in patients with high cholesterol baseline; assay type: in vivo, human; settings: five weeks
Protocol: (§2) The following non-limiting examples will further clarify the nature of this invention. In these examples, serum lipids and cholesterol were measured by standard methods ("Manual of Laboratory Operations, Lipid Research Clinic Program, Lipid and Lipoprotein Analysis", DHEW Publication No. (NIH) 75-628 (1974)); serum insulin, GIP, and C-peptide were measured by radioimmunoassay; and apoproteins were measured by radial immunodiffusion.
A group of 20 patients with high cholesterol baseline were orally given 70 µg enprostil twice daily. […] The median change for the group was 16 percent reduction, with 60 percent of the patients tested showing a significant reduction in serum cholesterol.
A second group of 16 patients with a high cholesterol baseline were given […] enprostil twice daily.
A third group of 13 individuals were given a placebo. […] The median change was a 2 percent increase in cholesterol.

atherosclerotic plaque = test: Example 10: cholesterol-fed rabbit, aortic atherosclerotic plaque; assay type: in vivo, New Zealand white rabbits; settings: Group B: 2% cholesterol diet, enprostil 10 pg/Kg/day constant oral infusion, 56 days; vehicle Group A 25%
Protocol: Fortyfive New Zealand white rabbits were allocated to three groups, A, B, and C, each group consisting of 15 rabbits. Group A was fed a 2% cholesterol diet and received vehicle administered by constant oral infusion at 62 ul/day using an Alza minipump. Group B was also fed a 2% cholesterol diet but, via the minipump, received enprostil at an infusion rate of 10 pg/Kg/day. Group C was fed a normal diet and received no treatment.
At the end of 56 days of the above treatments, rabbits were sacrificed and their aortic tissue was subjected to pathologic examination. In Group C, the placebo control group, the percent of aortic area covered by atherosclerotic plaque was under 5%. In the rabbits from Group A, which had received the high cholesterol diet with vehicle infusion, 25% of the aortic area was covered with atherosclerotic plaque. These findings contrasted with those for the Group B rabbits, which in addition to the high cholesterol diet had received enprostil by continuous infusion . In these animals, only 10% of aortic tissue was covered with atheromatous plaque. This finding is statistically significant from the Group A rabbits.

serum glucose levels = test: Example 8 (headed 'Example'): 30-day dosing study with standard breakfast, serum glucose; assay type: in vivo, human; settings: enprostil 35 pg BID
Protocol: 20 subjects participated in a study lasting up to 44 days. On day -8, all 20 subjects received a placebo capsule, followed 30 minutes later by a standard breakfast with serial blood measurements. Eight days later all 20 subjects were randomized to either enprostil 35 pg BID or placebo, and continued dosing for a period of 30 days. On days 1, 8, and 30, they were given enprostil followed 30 minutes later by a standard breakfast with serial blood measurements.

insulin and GIP = test: Example 9: fatty meal study, insulin and GIP; assay type: in vivo, human
Protocol: as §2
(§3) Six male subjects participated in a double-blind cross-over study. Either placebo or enprostil […] was orally given 30 minutes before a fatty meal consisting of approximately 600 Kcal, 90% of which was fat. Following the meal, serum triglycerides and total serum cholesterol were measured at serial time points before and after removal of serum chylomicrons by ultracentrifugation. Serum HDL-cholesterol was measured only before chylomicron removal.

serum cholesterol levels [1] = test: Example 3: 44-day placebo-controlled dosing study, total and LDL-cholesterol; assay type: in vivo, human
Protocol: as §2
In a 44-day dosing study, 20 subjects participated in a placebo-controlled trial. Ten subjects received enprostil and the remainder received placebo. Data were obtained from 9 of the 10 subjects who received enprostil. […] This subject was normocholesterolemic at baseline and no dietary manipulation was attempted.

serum triglycerides = test: Example 9: double-blind cross-over fatty meal study, serum and chylomicron triglycerides; assay type: in vivo, human
Protocol: as §2, §3

[2] = tested on: serum insulin and glucose levels; test: Example 5: double-blind cross-over meal study, serum insulin and glucose; assay type: in vivo, human; settings: enprostil orally 30 minutes before meal
Protocol: as §2
A group of 10 subjects participated in a double-blind cross-over study. Either a placebo or enprostil was orally given 30 minutes before meal time and levels of insulin and glucose were measured after the meal.

serum xylose = test: Example 7: oral d-xylose absorption test in 10-day cross-over study; assay type: in vivo, human; settings: 5 g d-xylose orally
Protocol: as §1

serum GIP levels = test: Example 4: double-blind cross-over meal study, serum GIP; assay type: in vivo, human; settings: 70p.g enprostil orally 30 minutes before meal; placebo four-fold increase
Protocol: as §2
Serum GIP levels are known to increase after meals.
Groups of 10 subjects participated in a double-blind, cross-over study. Either a placebo or 70p.g enprostil was orally given 30 minutes before meal time and levels of GIP were measured.

serum cholesterol levels [3] = test: Example 2, Table 2: 9-day placebo-controlled cross-over study in normocholesterolemic subjects, serum lipids and apoproteins; assay type: in vivo, human; parameters: Mean reduction of cholesterol / Mean reduction of LDL-cholesterol / Mean reduction of HDL-cholesterol / Mean reduction of apoprotein-A / Mean reduction of apoprotein-B: concentration or dose not given beside the values; settings: 9-day cross-over
Protocol: as §2
To further clarify the nature of these changes in a prospective manner, normal subjects were dosed with enprostil for periods ranging from 8 days up to 44 days in duration.
In a 9-day placebo-controlled cross-over study, with each subject serving as their own control, the mean reduction in cholesterol, LDL-cholesterol, and HDL-cholesterol are shown in Table 2.
These findings are surprising since the subjects in this study were normocholesterolemic at baseline (that is serum cholesterol under 250 mg/dl) and were on a free diet with no attempt to regulate dietary cholesterol intake.

[4] = tested on: serum insulin and glucose levels; test: Example 6: eight-day cross-over study with standard breakfast, serum glucose, insulin and GIP; assay type: in vivo, human; settings: 70 µg orally
Protocol: as §2
Eight healthy male subjects received either […] enprostil per day or placebo for eight days followed by a washout period of one week and a subsequent second eight-day administration during which they received the opposite drug regime.
On day 1 and day 8 of each study period the subjects reported to the clinical studies unit fasting and were administered 70 µg of enprostil orally in a glass of water. Thirty minutes later they were administered a standard breakfast and blood samples were drawn at -30 (just prior to enprostil administration), O (at the time of enprostil administration), 15, 30, 60, 90, 120 and 180 minutes.

serum cholesterol levels [5] = test: Example 2, Table 1: oral enprostil BID in hypercholesterolemic patients versus placebo; assay type: in vivo, human
Protocol: as §2

[6] = Animal antisecretory assays; assay type: in vivo; settings: compared with enprostil (isomer mixture)
insulin levels = settings: cited from earlier work
[7] = of nine evaluable subjects receiving enprostil
[8] = one subject, baseline to day 44
[9] = enprostil 35 pg before fatty meal
[10] = administered by tube to the duodenum

## COC(=O)CCC=C=CCC1C(=O)CC(O)C1C=CC(O)COc1ccccc1 (racemic) [enprostil, methyl (±)-7-[(1R*,2R*,3R*)-3-hydroxy-2-[(E)-(3R*)-3-hydroxy-4-phenoxy-l-butenyl]-5-oxocyclopentyl]-4,5-heptadienoate]
Serum glucose
  serum glucose by time curves following intravenous glucose administration, enprostil versus placebo: no marked differences
Serum cholesterol; 35 pg enprostil twice daily, 16 patients with high cholesterol baseline
  median change (reduction) of serum cholesterol: eleven
Serum cholesterol; 35 pg twice daily, 16 patients
  number of patients showing greater than 10 percent serum cholesterol reduction: eight
  number of patients showing greater than 25 percent reduction: one
  number of patients showing no change in serum cholesterol: seven
  patients showing serum cholesterol reduction: 56%
Serum cholesterol; 70 µg enprostil orally twice daily, 20 patients with high cholesterol baseline
  median change (reduction) of serum cholesterol: 16%
Serum cholesterol; 70 µg twice daily, 20 patients
  number of patients showing greater than 10 percent reduction: eleven
  number of patients showing greater than 25 percent reduction: one
  number of patients showing no change in serum cholesterol: eight
  patients tested showing a significant reduction in serum cholesterol: 60%
Atherosclerotic plaque
  aortic tissue covered with atheromatous plaque: 10%
Serum glucose levels; standard breakfast
  peak blood glucose levels versus placebo: substantially reduced
Serum glucose levels; standard breakfast 30 minutes after dose, placebo approximately 60 minutes
  time of appearance of peak blood glucose levels: ~90 min
Insulin and GIP; enprostil 35 pg, at 30, 60, and 90 minutes
  insulin levels following the fatty meal: significantly lower
Insulin and GIP; enprostil 35 µg, up to 360 minutes, p<0.05
  GIP levels following the fatty meal: virtually completely suppressed
Serum cholesterol levels [1]; [7]
  individuals with reduction in total and LDL-cholesterol throughout the entire 44-day period: Three
  subjects showing a reduction of total cholesterol by 16 days: Six
Serum cholesterol levels [1]; one subject (most dramatic example), mean baseline 208 mg/dl, normocholesterolemic, no dietary manipulation
  total serum cholesterol at day 44: 123 mg/dL
Serum cholesterol levels [1]; one subject, baseline 140 mg/dl
  LDL-cholesterol at day 44: 75 mg/dL
Serum cholesterol levels [1]; [8]
  reduction in LDL-cholesterol: 46%
  reduction of total serum cholesterol: 43%
Serum triglycerides; enprostil 35 pg 30 minutes before fatty meal, at 360 minutes, placebo 160 mg/dl at 120 minutes
  maximal postprandial total serum triglycerides before chylomicron removal: 105 mg/dL
Serum triglycerides; [9]
  appearance of postprandial serum: remained clear
  chylomicron triglyceride content (in words): virtually complete suppression
  chylomicron-associated triglyceridemia through 120 minutes: complete absence
Serum triglycerides; enprostil 35 pg phase, mean, placebo 86 mg/dl
  fasting baseline total serum triglycerides before chylomicron removal: 83 mg/dL
Serum triglycerides; enprostil 35 pg phase, placebo 82 mg/dl
  fasting serum triglycerides after chylomicron removal: 80 mg/dL
Serum triglycerides; enprostil 35 pg, 360 minutes, placebo 115 mg/dl (180 minutes)
  maximal postprandial serum triglycerides after chylomicron removal: 89 mg/dL
Serum triglycerides; enprostil 35 pg, at 360 minutes after fatty meal, placebo 46 mg/dl (120 minutes)
  mean rise of chylomicron triglyceride content over fasting level: 16 mg/dL
[2]
  raise in glucose levels after the meal: no statistically or clinically significant raise
[2]; placebo five-fold
  increase of insulin levels after the meal: two-fold
Serum xylose; 70 µg enprostil per day, days 1 and 9
  peak serum xylose levels: marked suppression and delay
Serum xylose; 70 µg per day
  reduction in the amount of xylose excreted over 5 hours: 30%
Serum xylose; 70 µg per day, placebo 1.8g
  amount of xylose excreted over 5 hours: 1.3 g
Serum GIP levels
  increase in serum GIP 60 minutes after the meal stimulus: no increase
Serum cholesterol levels [3]
  change in total triglycerides: essentially no change
Serum cholesterol levels [3]; free diet
  Mean reduction of HDL-cholesterol: -9.2%
  Mean reduction of LDL-cholesterol: -21.0%
  Mean reduction of apoprotein-A: -1.8%
  Mean reduction of apoprotein-B: -16.0%
  Mean reduction of cholesterol: -15.0%
[4]; both study days
  serum GIP: essentially complete inhibition
[4]; day 1 and 8
  serum insulin concentrations for each time point: marked reduction
[4]; day 1 and day 8
  reduction of area under the serum glucose by time curve compared to the placebo phase: 15-20%
Serum cholesterol levels [5]; 7 µg BID, 9 hypercholesterolemic subjects
  Cholesterol % decrease (combined 2-12 week of dosing): 67%
Serum cholesterol levels [5]; 7 µg BID, 9 subjects
  Median % change (cholesterol): -11%
Serum cholesterol levels [5]; 35 µg BID, 28 hypercholesterolemic subjects
  Cholesterol % decrease (combined 2-12 week of dosing): 64%
Serum cholesterol levels [5]; 35 µg BID, 28 subjects
  Median % change (cholesterol): -13%
Serum cholesterol levels [5]; 70 µg BID, 28 hypercholesterolemic subjects
  Cholesterol % decrease (combined 2-12 week of dosing): 64%
Serum cholesterol levels [5]; 70 µg BID, 28 subjects
  Median % change (cholesterol): -17%

## COC(=O)CCC=C=CC[C@H]1C(=O)C[C@@H](O)[C@@H]1/C=C/[C@@H](O)COc1ccccc1 (single isomer, unassigned) [R allenic isomer of enprostil]
[6]
  potency in animal antisecretory assays: increased potency
  toxicity in animal antisecretory assays: lower toxicity

## CCCCC[C@](C)(O)/C=C/[C@H]1[C@H](O)CC(=O)[C@@H]1C/C=C\CCCC(=O)OCC [(15S),15-methyl-PGE2 ethyl ester]
Insulin levels; intravenous administration
  glucose levels: without affecting
  insulin levels: lowered

## CCCCC[C@](C)(O)/C=C/[C@H]1[C@H](O)CC(=O)[C@@H]1C/C=C\CCCC(=O)OC [(15S),15-methyl-PGE2 methyl ester]
Insulin levels; [10]
  insulin levels: lowered
  serum glucose levels: no change
Insulin levels; intraduodenally or intravenously
  time to peak serum glucose levels: no change
